System: Entamoeba histolytica
Assay: […] activity against Entamoeba histolytica HM-1:IMSS after 72 hrs by eosin-staining method
Assay type: functional, organism-based
Settings: not given

Row | IC50 [nM] | Compound
1 | 28 | COC(=O)c1ccccc1SCCn1c([N+](=O)[O-])cnc1C
2 | 15 | COC(=O)c1ccccc1[S+]([O-])CCn1c([N+](=O)[O-])cnc1C (configuration not stated)
3 | 21 | COC(=O)c1ccccc1S(=O)(=O)CCn1c([N+](=O)[O-])cnc1C

System: MCF7
Assay: Cytotoxicity against human MCF7 cells after 48 hrs by MTT assay
Assay type: cell-based
Settings: MCF7, 48 h

Row | Compound | IC50 [µM]
4 | COC(=O)c1ccccc1SCCn1c([N+](=O)[O-])cnc1C | > 250
5 | COC(=O)c1ccccc1[S+]([O-])CCn1c([N+](=O)[O-])cnc1C (configuration not stated) | > 250
6 | COC(=O)c1ccccc1S(=O)(=O)CCn1c([N+](=O)[O-])cnc1C | > 250
7 | Cc1ncc([N+](=O)[O-])n1CCO [METRONIDAZOLE] | > 250
